Results taken from ChEMBL document CHEMBL2157951, “Polysulfated xanthones: multipathway development of a new generation of dual anticoagulant/antiplatelet agents” (J Med Chem, 2011).
The source made the active and inactive calls. The calls are words filed in the database; no cut-off is given here.

Columns and labels:
[1] = Stability in RPMI medium at 37 degC assessed as compound degradation incubated for 24 hrs; assay type: physicochemical
Blood [2] = assay: Anticoagulant activity in human whole blood assessed as acceleration/kinetics of fibrin buildup and cross-linking at 3.12 x 10^-4 M by thromboelastography analysis in presence of intrinsic activator (reference value: 77 degree); assay type: functional
Plasma [3] = assay: Anticoagulant activity in human plasma assessed as effect on prothrombin time by coagulometer analysis; assay type: functional, cell-free
Coagulation factor X [4] = molecular target: T1, Coagulation factor X (Homo sapiens, UniProt P00742); assay: Inhibition of human factor 10a assessed as CBS 31.39 substrate hydrolysis at 1 x 10^-3 M by spectrophotometric analysis
Blood [5] = assay: Anticoagulant activity in human whole blood assessed as amplitude of the clot at 10 mins at 3.12 x 10^-4 M by thromboelastography analysis in presence of intrinsic activator (reference value: 57 mm); assay type: functional
[6] = molecular target: Coagulation factor X/antithrombin III (Homo sapiens, UniProt P00742+P01008); assay: Inhibition of human factor 10a/antithrombin 3 assessed as CBS 31.39 substrate hydrolysis by spectrophotometric analysis; assay type: protein-complex assay
[7] = molecular target: Vitamin K-dependent protein C (Homo sapiens) (UniProt P04070); assay: Inhibition of activated protein C in citreated human plasma using CBS 42.46 as substrate at 2 x 10^-3 M by chromogenic assay
Plasma [8] = assay: Anticoagulant activity in human plasma assessed as concentration required to double the thrombin time by coagulometer analysis; assay type: functional
[9] = molecular target: Vitamin K-dependent protein C (Homo sapiens) (UniProt P04070); assay: Inhibition of activated protein C in citreated human plasma using CBS 42.46 as substrate at 2.50 x 10^-4 M by chromogenic assay
[10] = molecular target: Prothrombin (Homo sapiens) (UniProt P00734); assay: Inhibition of human thrombin assessed as chromozym TH substrate hydrolysis at 1 x 10^-4 to 1 x 10^-3 M by spectrophotometric analysis in presence of antithrombin-3
[11] = molecular target: Prothrombin (Homo sapiens) (UniProt P00734); assay: Inhibition of human thrombin assessed as chromozym TH substrate hydrolysis at 1.9 x 10^-9 by spectrophotometric analysis
Plasma [12] = assay: Anticoagulant activity in human plasma assessed as effect on activated partial thromboplastin time by coagulometer analysis; assay type: functional, cell-free
Plasma [13] = assay: Reduction of prothrombin level in citreated human plasma by measuring prothrombin clotting time after mixing with factor 2 deficient plasma
[14] = molecular target: Coagulation factor X/antithrombin III (Homo sapiens) (UniProt P01008+P00742); assay: Inhibition of human factor 10a/antithrombin 3 assessed as CBS 31.39 substrate hydrolysis at 1 x 10^-3 M by spectrophotometric analysis; assay type: protein-complex assay
Plasma [15] = assay: Anticoagulant activity in human plasma assessed as concentration required to double the prothrombin time by coagulometer analysis; assay type: functional
Coagulation factor X [16] = molecular target: T1, Coagulation factor X; assay: Inhibition of human factor 10a assessed as CBS 31.39 substrate hydrolysis by spectrophotometric analysis
Blood [17] = assay: Anticoagulant activity in human whole blood assessed as time from beginning of clot formation until the amplitude of thromboelastogram reaches 20 mm at 3.12 x 10^-4 M by thromboelastography analysis in presence of intrinsic activator (reference value: 82 sec); assay type: functional
Blood [18] = assay: Anticoagulant activity in human whole blood assessed as period of time from initiation of the test to the initial fibrin formation at 3.12 x 10^-4 M by thromboelastography analysis in presence of intrinsic activator (reference value: 188 sec); assay type: functional
Plasma [19] = assay: Anticoagulant activity in human plasma assessed as effect on thrombin time by coagulometer analysis; assay type: functional, cell-free
Plasma [20] = assay: Anticoagulant activity in human plasma assessed as concentration required to double the activated partial thromboplastin time by coagulometer analysis; assay type: functional
Plasma [21] = assay: Anticoagulant activity in human plasma assessed as effect on activated partial thromboplastin time at 5 mM by coagulometer analysis relative to untreated control; assay type: functional
Plasma [22] = assay: Anticoagulant activity in human plasma assessed as effect on thrombin time at 5 x 10^-3 M by coagulometer analysis; assay type: functional, cell-free
Plasma [23] = assay: Anticoagulant activity in human plasma assessed as effect on prothrombin time at 5 mM by coagulometer analysis relative to untreated control; assay type: functional
Mus musculus [24] = assay: Anticoagulant activity in mouse assessed as increase of activated partial thromboplastin time at 150 and 300 umol/kg, ip measured after 120 mins; assay type: functional, organism-based
Mus musculus [25] = assay: Anticoagulant activity in mouse assessed as increase of activated thrombin time at 300 umol/kg, po; assay type: functional, organism-based
[26] = Chemical stability of the compound in phosphate buffered saline at pH 7.4 assessed as compound remaining at 1 x 10^-5 M after 120 mins by HPLC analysis; assay type: physicochemical; details: read-out: Stability
Mus musculus [27] = assay: Anticoagulant activity in mouse assessed as increase of thrombin time at 150 and 300 umol/kg, ip measured after 120 mins; assay type: functional, organism-based
Mus musculus [28] = assay: Anticoagulant activity in mouse assessed as increase of activated partial thromboplastin time at 300 umol/kg, po; assay type: functional, organism-based
Mus musculus [29] = assay: Anticoagulant activity in mouse assessed as increase of activated prothrombin time at 300 umol/kg, po; assay type: functional, organism-based
[30] = Chemical stability of the compound in aqueous solution at 1.00 x 10^-2, 1.00 x 10^-4 and 1.00 x 10^-6 M at 4 degC after 15 days by HPLC analysis; details: buffer, 360 h, 10 mM, 100 µM, 1 µM
Coagulation factor X [31] = molecular target: T1, Coagulation factor X; assay: Non-competitive inhibition of human factor 10a using CBS 31.39 as substrate hydrolysis by Michaelis-Menten equation analysis
[32] = Chemical stability of the compound in aqueous solution at 1.00 x 10^-2, 1.00 x 10^-4 and 1.00 x 10^-6 M at room temperature after 15 days by HPLC analysis; details: buffer, 360 h, 10 mM, 100 µM, 1 µM
Mus musculus [33] = assay: Anticoagulant activity in ip dosed mouse assessed as increase of thrombin time; assay type: functional, organism-based
[34] = Chemical stability of the compound in sodium acetate buffer at pH 5 assessed as compound remaining at 1 x 10^-5 M after 120 mins by HPLC analysis; assay type: physicochemical; details: read-out: Stability
[35] = Chemical stability of the compound in HCl buffer at pH 1 assessed as compound remaining at 1 x 10^-5 M after 120 mins by HPLC analysis; assay type: physicochemical; details: read-out: Stability
[36] = Solubility of the compound in water; assay type: physicochemical; details: buffer
Plasma [37] = assay: Metabolic stability in human plasma after 3 hrs by HPLC analysis by HPLC analysis; assay type: ADME, cell-free
Mus musculus [38] = assay: Anticoagulant activity in mouse assessed as increase of prothrombin time at 150 and 300 umol/kg, ip measured after 120 mins; assay type: functional, organism-based
[39] = Chemical stability of the compound in potassium phosphate buffer at pH 6.7 assessed as compound remaining at 1 x 10^-5 M after 120 mins by HPLC analysis; assay type: physicochemical; details: read-out: Stability
[40] = Chemical stability of the compound in aqueous solution at 1.00 x 10^-2, 1.00 x 10^-4 and 1.00 x 10^-6 M at -20 degC after 15 days by HPLC analysis; details: buffer, 360 h, 10 mM, 100 µM, 1 µM
Mus musculus [41] = assay: Hepatotoxicity in mouse assessed as GOT level in plasma at 300 umol/kg, ip after 120 mins (reference value: 108 U/L); assay type: toxicity, organism-based; details: in vivo, 2 h
Mus musculus [42] = assay: Anticoagulant activity in ip dosed mouse assessed as increase of prothrombin time; assay type: functional, organism-based
Mus musculus [43] = assay: Anticoagulant activity in ip dosed mouse assessed as increase of activated partial thromboplastin time; assay type: functional, organism-based
[44] = Chemical stability of the compound in sodium boric acid at pH 9.1 assessed as compound remaining at 1 x 10^-5 M after 120 mins by HPLC analysis; assay type: physicochemical; details: sodium boric acid buffer, read-out: Stability
Mus musculus [45] = assay: Hepatotoxicity in mouse assessed as GPT level in plasma at 300 umol/kg, ip after 120 mins (reference value: 40 U/L); assay type: toxicity, organism-based; details: in vivo, 2 h

In the case of `O=S(=O)(O)Oc1ccc(/C=C/c2cc(O)cc(O)c2)cc1`, the Stability ([1]; 24 h) is reported as “Stable”.
With `O=c1c2ccc(O[C@@H]3O[C@H](COS(=O)(=O)O)[C@@H](OS(=O)(=O)O)[C@H](OS(=O)(=O)O)[C@H]3OS(=O)(=O)O)cc2oc2cc(O[C@@H]3O[C@H](COS(=O)(=O)O)[C@@H](OS(=O)(=O)O)[C@H](OS(=O)(=O)O)[C@H]3OS(=O)(=O)O)ccc12` the Activity (Blood [2]) was 68 degree, the Activity (Plasma [3]) was “Dose-dependent effect” and the inhibition (Coagulation factor X [4]) was 66.3%. It also gave an Activity (Blood [5]) of 51 mm, an IC50 [6] of 190 µM and an inhibition [7] greater than 50%. For the same compound, the Activity (Plasma [8]) was 0.61 mM, the inhibition [9] was “inactive” and the inhibition [10] was “inactive”. The inhibition [11] was 37%, the Activity (Plasma [12]) was “Dose-dependent effect” and the Activity (Plasma [13]) was “Active”. The inhibition [14] was 88.8%, the 2PT (Plasma [15]) was 0.71 mM and the IC50 (Coagulation factor X [16]) was 740 µM. For the same compound, the Time (Blood [17]) was 114 s, the Time (Blood [18]) was 469 s and the Activity (Plasma [19]) was “Dose-dependent effect”. The 2aPTT (Plasma [20]) was 0.06 mM.
In the case of `O=c1c2ccc(OS(=O)(=O)O)cc2oc2cc(OS(=O)(=O)O)ccc12`, the “fold change (FC)” value (Plasma [21]) is reported as 1.3, the Activity (Plasma [22]) is reported as “inactive” and the 2PT (Plasma [15]) is reported as greater than 5 mM. For the same compound, the “fold change (FC)” value (Plasma [23]) was 1.1 and the 2aPTT (Plasma [20]) was greater than 5 mM.
With `O=c1c2cc(O)c(O)cc2oc2cc(O)c([C@@H]3O[C@H](COS(=O)(=O)O)[C@@H](OS(=O)(=O)O)[C@H](OS(=O)(=O)O)[C@H]3OS(=O)(=O)O)c(O)c12` the Activity (Plasma [3]) was “Dose-dependent effect”, the Activity (Plasma [12]) was “Dose-dependent effect” and the Activity (Plasma [19]) was “Dose-dependent effect”. For the same compound, the 2aPTT (Plasma [20]) was 0.39 mM.
For `O=c1c2cc(O)c(O)cc2oc2cc(O)c([C@@H]3O[C@H](CO)[C@@H](O)[C@H](O)[C@H]3O)c(O)c12`, the Activity (Plasma [21]) was “inactive”, the Activity (Plasma [22]) was “inactive” and the Activity (Plasma [23]) was “inactive”.
In the case of `O=c1c2ccc(O[C@@H]3O[C@H](CO)[C@@H](O)[C@H](O)[C@H]3O)cc2oc2cc(O[C@@H]3O[C@H](CO)[C@@H](O)[C@H](O)[C@H]3O)ccc12`, the Activity (Plasma [21]) is reported as “inactive”, the Activity (Plasma [22]) is reported as “inactive” and the Activity (Plasma [23]) is reported as “inactive”.
For `O=c1c2cc(OS(=O)(=O)O)c(OS(=O)(=O)O)cc2oc2cc(OS(=O)(=O)O)c([C@@H]3O[C@H](COS(=O)(=O)O)[C@@H](OS(=O)(=O)O)[C@H](OS(=O)(=O)O)[C@H]3OS(=O)(=O)O)c(O)c12` [MANGIFERIN HEPTASULFATE], the Activity (Mus musculus [24]) was “Active”, the Activity (Mus musculus [25]) was “inactive” and the Activity (Blood [2]) was 73 degree. For the same compound, the remaining at 2 h, 10 µM [26] was greater than 85%, the Activity (Mus musculus [27]) was “Active” and the Activity (Mus musculus [28]) was “inactive”. The Activity (Plasma [3]) was “Dose-dependent effect”, the Activity (Mus musculus [29]) was “inactive” and the Stability [30] was “Stable”. For the same compound, the inhibition (Coagulation factor X [31]) was “Active”, the inhibition (Coagulation factor X [4]) was 52.1% and the Activity (Blood [5]) was 50 mm. For the same compound, the inhibition [7] was greater than 50%, the Activity (Plasma [8]) was 1.96 mM and the Stability [32] was “Stable”. The Activity (Mus musculus [33]) was “Dose-dependent effect”, the inhibition [9] was “inactive” and the remaining at 2 h, 10 µM [34] was greater than 85%. The remaining at 2 h, 10 µM [35] was greater than 85%, the solubility [36] was “soluble” and the inhibition [10] was “inactive”. For the same compound, the inhibition [11] was 37%, the Stability (Plasma [37]) was “Stable” and the Activity (Plasma [12]) was “Dose-dependent effect”. For the same compound, the Activity (Mus musculus [38]) was “Active”, the Activity (Plasma [13]) was “Active” and the remaining at 2 h, 10 µM [39] was greater than 85%. For the same compound, the inhibition [14] was 41%, the Stability [40] was “Stable” and the Activity (Mus musculus [41]) was 125 U/L. For the same compound, the 2PT (Plasma [15]) was 1.6 mM, the Activity (Mus musculus [42]) was “Dose-dependent effect” and the Activity (Mus musculus [43]) was “Dose-dependent effect”. The IC50 (Coagulation factor X [16]) was 970 µM, the Time (Blood [17]) was 86 s and the Time (Blood [18]) was 247 s. The remaining at 2 h, 10 µM [44] was greater than 85%, the Activity (Plasma [19]) was “Dose-dependent effect” and the 2aPTT (Plasma [20]) was 0.21 mM. For the same compound, the Activity (Mus musculus [45]) was 46 U/L.
For `Oc1ccc(/C=C/c2cc(O)cc(O)c2)cc1` [RESVERATROL], the degraded at 24 h ([1]; RPMI medium, read-out: Drug degradation) was 50%.
